In US7223759B2, “Antibacterial 3,5-diaminopiperidine-substituted aromatic and heteroaromatic compounds” (Anadys Pharmaceuticals, Inc., priority 2003, dated 2007):

What follows are compounds tested on Escherichia coli (ATCC25922) or Staphylococcus aureus (ATCC25923) (assay: Antibacterial MIC, microdilution method in Mueller-Hinton medium). Settings: Escherichia coli, 18 h, MIC in E. coli or S. aureus; two-fold serial dilutions 64 to 0.5 μg/ml in duplicate; 18 hours of incubation at 35° C.; read-out: Potency (MIC).
Assay type: cell-based
In short: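 Read after 18 h incubation at 35° C, MIC is the lowest compound level that blocked growth. Compounds were tested in duplicate over 64–0.5 μg/ml two-fold dilutions using Mueller-Hinton microdilution per NCCLS standard.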
For Cl.Nc1ccc(Nc2nc(N3C[C@H](N)C[C@H](N)C3)nc(N3C[C@H](N)C[C@H](N)C3)n2)cc1 [N-(4-amino-phenyl)-4,6-Biss-((3R,5S)-3,5-diamino-piperidin-1-yl)-[1,3,5]triazine-2-amine], the MIC was > 64 µg/mL.
With Cc1cc(NC(=O)c2ccccc2)c(Cl)cc1Nc1nc(N2CCCCC2)nc(N2CCCCC2)n1 [N-(4-benzoylamino-5-chloro-23-methyl-phenyl)-4,6-Bis((3R,5S)-3,5-diamino-piperidin-1-yl)-[1,3,5]triazine-2-amine] the MIC was > 64 µg/mL.
N[C@@H]1C[C@H](N)CN(c2nc(Nc3ccc(Br)cc3)nc(N3C[C@H](N)C[C@H](N)C3)n2)C1 [N-(4-bromo-phenyl)-4,6-Bis-((3R,5S)-3,5-diamino-piperidin-1-yl)-[1,3,5]triazine-2-amine] was tested, and the MIC was > 64 µg/mL.
In the case of Cl.NC(=O)c1ccc(Nc2nc(N3C[C@H](N)C[C@H](N)C3)nc(N3C[C@H](N)C[C@H](N)C3)n2)cc1 [N-(4-carbamoyl-phenyl)-4,6-Bis-((3R,5S)-3,5-diamino-piperidin-1-yl)-[1,3,5]triazine-2-amine], the MIC is reported as > 64 µg/mL.
For Cc1cc(Cl)ccc1CNc1nc(N2CCCCC2)nc(N2CCCCC2)n1.Cl [N-(4-chloro-2-methyl-benzyl)-44,6-Bis-((3R,5S)-3,5-diamino-piperidin-1-yl)-[1,3,5]triazine-2-amine], the MIC was > 64 µg/mL.
For Cl.N[C@@H]1C[C@H](N)CN(c2nc(Nc3ccc(O)c4ccccc34)nc(N3C[C@H](N)C[C@H](N)C3)n2)C1 [N-(4-hydroxy-naphthalen-1-yl)-4,6-Bis-((3R,5S)-3,5-diamino-piperidin-1-yl)-[1,3,5]triazine-2-amine], the MIC was < 16 µg/mL.
With N[C@@H]1C[C@H](N)CN(c2nc(Nc3ccc(O)cc3)nc(N3C[C@H](N)C[C@H](N)C3)n2)C1 [N-(4-hydroxy-phenyl)-4,6-Bis-((3R,5S)-3,5-diamino-piperidin-1-yl)-[1,3,5]triazine-2-amine] the MIC was > 64 µg/mL.
For COc1ccc(-c2ccccc2)cc1Nc1nc(N2C[C@H](N)C[C@H](N)C2)nc(N2C[C@H](N)C[C@H](N)C2)n1 [N-(4-methoxy-biphenyl-3-yl)-4,6-Bis-((3R,5S)-3,5-0diamino-piperidin-1-yl)-[1,3,5]triazine-2-amine], the MIC was < 64 µg/mL.
In the case of Cc1csc(Nc2nc(N3C[C@H](N)C[C@H](N)C3)nc(N3C[C@H](N)C[C@H](N)C3)n2)n1.Cl [N-(4-methyl-thiazol-2-yl)-4,6-Bis-((3R,5S)-3,5-diamino-piperidin-1-yl)-[1,3,5]triazine-2-amine], the MIC is reported as > 64 µg/mL.
With N[C@@H]1C[C@H](N)CN(c2nc(Nc3ccc(Nc4ccccc4)cc3)nc(N3C[C@H](N)C[C@H](N)C3)n2)C1 [N-(4-phenylamino-phenyl)-4,6-Bis((3R,5S)-3,5-diamino-piperidin-1-yl)-[1,3,5]triazine-2-amine] the MIC was < 64 µg/mL.
N[C@@H]1C[C@H](N)CN(c2nc(Nc3ccc(C(=O)Nc4ccccc4)cc3)nc(N3C[C@H](N)C[C@H](N)C3)n2)C1 [N-(4-phenylcarbamoyl-phenyl)-4,6-Bis-((3R,5S)-3,5-diamino-piperidin-1-yl)-[1,3,5]triazine-2-amine] was tested, and the MIC was > 64 µg/mL.
For N=C(N)Nc1ccc(Nc2nc(N3CCCCC3)nc(N3CCCCC3)n2)cc1 [N-(4-quanidino-phenyl)-4,6-Bis-((3R,5S)-3,5-diamino-piperidin-1-yl)-[1,3,5]triazine-2-amine], the MIC was < 64 µg/mL.
For N[C@@H]1C[C@H](N)CN(c2nc(Nc3ccc(SC(F)(F)F)cc3)nc(N3C[C@H](N)C[C@H](N)C3)n2)C1 [N-(4-trifluoromethylsulfanyl-phenyl)-4,6-Bis-((3R,5S)-3,5-diamino-piperidin-1-yl)-[1,3,5]triazine-2-amine], the MIC was < 64 µg/mL.

Same assay, conditions: Escherichia coli, 18 h, read-out: Potency (MIC)
N[C@@H]1C[C@H](N)CN(c2nc(Nc3ccc(NS(=O)(=O)c4ccccc4)c(O)c3)nc(N3C[C@H](N)C[C@H](N)C3)n2)C1 [N-(4-benzenesulfonylamino-3-hydroxy-phenyl)-4,6-Bis-((3R,5S)-3,5-diamino-piperidin-1-yl)-[1,3,5]triazine-2-amine] was tested, and the MIC was < 64 µg/mL.
With N[C@@H]1C[C@H](N)CN(c2nc(Nc3ccc(C(=O)c4ccccc4)cc3)nc(N3C[C@H](N)C[C@H](N)C3)n2)C1 [N-(4-benzoyl-phenyl)-4,6-Bis-((3R,5S)-3,5-diamino-piperidin-1-yl)-[1,3,5]triazine-2-amine] the MIC was < 64 µg/mL.
N[C@@H]1C[C@H](N)CN(c2nc(Nc3ccc(NC(=O)c4ccccc4)c(O)c3)nc(N3C[C@H](N)C[C@H](N)C3)n2)C1 [N-(4-benzoylamino-3-hydroxy-phenyl)-4,6-Bis-((3R,5S)-3,5-diamino-piperidin-1-yl)-[1,3,5]triazine-2-amine] was tested, and the MIC was < 16 µg/mL.
In the case of Cc1cc(Br)ccc1Nc1nc(N2C[C@H](N)C[C@H](N)C2)nc(N2C[C@H](N)C[C@H](N)C2)n1 [N-(4-bromo-2-methyl-phenyl)-4,6-Bis-((3R,5S)-3,5-diamino-piperidin-1-yl)-[1,3,5]triazine-2-amine], the MIC is reported as > 64 µg/mL.
For CCCC(=O)Nc1ccc(Nc2nc(N3C[C@H](N)C[C@H](N)C3)nc(N3C[C@H](N)C[C@H](N)C3)n2)cc1O [N-(4-butyrylamino-3-hydroxy-phenyl)-4,6-Bis-((3R,5S)-3,5-diamino-piperidin-1-yl)-[1,3,5]triazine-2-amine], the MIC was > 64 µg/mL.
For N[C@@H]1C[C@H](N)CN(c2nc(Nc3ccc(-n4c5ccccc5c5ccccc54)cc3)nc(N3C[C@H](N)C[C@H](N)C3)n2)C1 [N-(4-carbazol-9-yl-phenyl)-4,6-Bis-((3R,5S)-3,5-diamino-piperidin-1-yl)-[1,3,5]triazine-2-amine], the MIC was < 16 µg/mL.
CCCCCCCCCC(=O)Nc1ccc(Nc2nc(N3C[C@H](N)C[C@H](N)C3)nc(N3C[C@H](N)C[C@H](N)C3)n2)cc1O [N-(4-decanoylamino-3-hydroxy-phenyl)-4,6-Bis-((3R,5S)-3,5-diamino-piperidin-1-yl)-[1,3,5]triazine-2-amine] was tested, and the MIC was < 16 µg/mL.
With CCN(CC)c1ccc(Nc2nc(N3C[C@H](N)C[C@H](N)C3)nc(N3C[C@H](N)C[C@H](N)C3)n2)cc1 [N-(4-diethylamino-phenyl)-4,6-Bis-((3R,5S)-3,5-diamino-piperidin-1-yl)-[1,3,5]triazine-2-amine] the MIC was > 64 µg/mL.
With CCCCCC(=O)Nc1ccc(Nc2nc(N3C[C@H](N)C[C@H](N)C3)nc(N3C[C@H](N)C[C@H](N)C3)n2)cc1O [N-(4-hexanoylamino-3-hydroxy-phenyl)-4,6-Bis-((3R,5S)-3,5-diamino-piperidin-1-yl)-[1,3,5]triazine-2-amine] the MIC was < 16 µg/mL.
For CCCCCCOc1ccc(Nc2nc(N3C[C@H](N)C[C@H](N)C3)nc(N3C[C@H](N)C[C@H](N)C3)n2)cc1 [N-(4-hexyloxy-phenyl)-4,6-Bis-((3R,5S)-3,5-diamino-piperidin-1-yl)-[1,3,5]triazine-2-amine], the MIC was < 16 µg/mL.
In the case of COc1ccc(Nc2nc(N3C[C@H](N)C[C@H](N)C3)nc(N3C[C@H](N)C[C@H](N)C3)n2)c([N+](=O)[O-])c1 [N-(4-methoxy-2-nitro-phenyl)-4,6-Bis-((3R,5S)-3,5-diamino-piperidin-1-yl)-[1,3,5]triazine-2-amine], the MIC is reported as > 64 µg/mL.
In the case of COc1ccc(Nc2nc(N3C[C@H](N)C[C@H](N)C3)nc(N3C[C@H](N)C[C@H](N)C3)n2)cc1 [N-(4-methoxy-phenyl)-4,6-Bis-((3R,5S)-3,5-diamino-piperidin-1-yl)-[1,3,5]triazine-2-amine], the MIC is reported as > 64 µg/mL.
For Cc1cc(=O)oc2cc(Nc3nc(N4C[C@H](N)C[C@H](N)C4)nc(N4C[C@H](N)C[C@H](N)C4)n3)ccc12 [N-(4-methyl-2-oxo-2H-chromen-7-yl)-4,6-Bis-((3R,5S)-3,5-diamino-piperidin-1-yl)-[1,3,5]triazine-2-amine], the MIC was < 16 µg/mL.
CSc1ccc(CNc2nc(N3C[C@H](N)C[C@H](N)C3)nc(N3C[C@H](N)C[C@H](N)C3)n2)cc1 [N-(4-methylsulfanyl-benzyl)-4,6-Bis-((3R,5S)-3,5-diamino-piperidin-1-yl)-[1,3,5]triazine-2-amine] was tested, and the MIC was < 64 µg/mL.
With N[C@@H]1C[C@H](N)CN(c2nc(Nc3ccc(N4CCOCC4)cc3)nc(N3C[C@H](N)C[C@H](N)C3)n2)C1 [N-(4-morpholin-4-yl-phenyl)-4,6-Bis-((3R,5S)-3,5-diamino-piperidin-1-yl)-[1,3,5]triazine-2-amine] the MIC was > 64 µg/mL.
In the case of N[C@@H]1C[C@H](N)CN(c2nc(Nc3ccc([N+](=O)[O-])cc3)nc(N3C[C@H](N)C[C@H](N)C3)n2)C1 [N-(4-nitro-phenyl)-4,6-Bis-((3R,5S)-3,5-diamino-piperidin-1-yl)-[1,3,5]triazine-2-amine], the MIC is reported as < 64 µg/mL.
N[C@@H]1C[C@H](N)CN(c2nc(NCc3ccc(Oc4ccccc4)cc3)nc(N3C[C@H](N)C[C@H](N)C3)n2)C1 [N-(4-phenoxy-benzyl)-4,6-Bis-((3R,5S)-3,5-diamino-piperidin-1-yl)-[1,3,5]triazine-2-amine] was tested, and the MIC was > 64 µg/mL.
For N[C@@H]1C[C@H](N)CN(c2nc(Nc3ccc(S(N)(=O)=O)cc3)nc(N3C[C@H](N)C[C@H](N)C3)n2)C1 [N-(4-sulfamoyl-phenyl)-4,6-Bis-((3R,5S)-3,5-diamino-piperidin-1-yl)-[1,3,5]triazine-2-amine], the MIC was > 64 µg/mL.
C=Cc1ccc(Nc2nc(N3C[C@H](N)C[C@H](N)C3)nc(N3C[C@H](N)C[C@H](N)C3)n2)cc1 [N-(4-vinyl-phenyl)-4,6-Bis-((3R,5S)-3,5-diamino-piperidin-1-yl)-[1,3,5]triazine-2-amine] was tested, and the MIC was < 64 µg/mL.
In the case of N[C@@H]1C[C@H](N)CN(c2nc(Nc3ccc(C(=O)CC(=O)Nc4ccc(S(=O)(=O)Nc5ccc6cn[nH]c6c5)cc4)cc3)nc(N3C[C@H](N)C[C@H](N)C3)n2)C1 [N-(4-{2-[4-(1H-indazol-6-ylsulfamoyl)-phenylcarbamoyl]-acetyl}-phenyl)-4,6-Bis-((3R,5S)-3,5-diamino-piperidin-1-yl)-[1,3,5]triazine-2-amine], the MIC is reported as < 64 µg/mL.
